Data as given in patent US20230310393A1 (Tianjin Creatron Biotechnology Co., Ltd., priority 2020, published 2023).
≈ marks a conversion by molar mass, not a printed value. Read-outs that look alike come from different tables or passages of the source.

Experiments:
[1] = Solubility of sorafenib in different organic solvents; assay type: physicochemical; details: for solubility at 30 min / solubility at 24 h: organic solvent, 37 °C, organic solvent or mixture, thermodynamic from solid
[2] = Stability of sorafenib in different organic solvents (related substances by HPLC); assay type: physicochemical
[3] = Solubility test of solid dispersions (pH 1.0 hydrochloric acid, pH 6.8 phosphate buffer, FaSSGF, FaSSIF); assay type: physicochemical; details: main drug:carrier 1:3; for Solubility: pH 1.0 hydrochloric acid solution, 37° C., listed as SLFN
Procedure: An appropriate amount of solid dispersion (SD) was added to a pH 1.0 hydrochloric acid solution and a pH 6.8 phosphate buffer solution, while keeping the SD in excess, and shaken at 37° C. in a shaker at 300 rpm.

[4] = Stability of solid dispersions at high temperature of 60° C. (related substances by HPLC); assay type: physicochemical
Procedure: The SD prepared above was sealed in an aluminum foil bag, placed in a high temperature of 60° C. for investigation for 10 days and 30 days, and related substances were detected by HPLC method.

[5] = healthy volunteer, oral 100 mg 14C radiolabeled sorafenib; cited from earlier work
[6] = renal cell carcinoma patients; cited from earlier work
[7] = cited from earlier work
[8] = acetone-ethanol 1:2, standing 30 min
[9] = acetone-ethanol 1:2, standing 24 h
[10] = dichloromethane-acetone 3:1, standing 30 min
[11] = dichloromethane-acetone 3:1, standing 24 h
[12] = methanol-dichloromethane 1:2, standing 30 min
[13] = methanol-dichloromethane 1:2, standing 24 h
[14] = methanol-dichloromethane 1:3, standing 30 min
[15] = methanol-dichloromethane 1:3, standing 24 h
[16] = methanol-dichloromethane 1:4, standing 30 min
[17] = methanol-dichloromethane 1:4, standing 24 h

CNC(=O)c1cc(Oc2ccc(NC(=O)Nc3ccc(Cl)c(C(F)(F)F)c3)cc2)ccn1 [sorafenib, 4-{4-[3-(4-chloro-3-trifluoromethyl-phenyl)acylurea]-phenoxy}-pyridine-2-carboxylic acid methylamine]
Solubility ([1]; acetone-ethanol 1:2, 30 min, 37° C.): 18.51 mg/mL (≈ 39.8 mM)
Solubility ([1]; acetone-ethanol 1:2, 24 h, 37° C.): 18.48 mg/mL (≈ 39.8 mM)
Solubility (visual inspection) ([1]; acetone-ethanol 1:3 and 1:5, 30 min): Less API dissolved by visual
Solubility (visual inspection) ([1]; dichloromethane-acetone 1:1 and 2:1, 30 min): Less API dissolved by visual
Solubility ([1]; methanol-dichloromethane 1:1, 30 min, 37° C.): 14.28 mg/mL (≈ 30.7 mM)
solubility at 30 min ([1]; dichloromethane-acetone 3:1, 30 min, 37° C.): 3.6 mg/mL (≈ 7.74 mM)
solubility at 24 h ([1]; dichloromethane-acetone 3:1, 24 h, 37° C.): 4.04 mg/mL (≈ 8.69 mM)
solubility at 30 min ([1]; isopropanol, 30 min): 2.91 mg/mL (≈ 6.26 mM)
solubility at 24 h ([1]; isopropanol, 24 h): 2.81 mg/mL (≈ 6.05 mM)
solubility at 30 min ([1]; methanol-dichloromethane 1:0.5 (v/v), 30 min, 37° C.): 8.34 mg/mL (≈ 17.9 mM)
solubility at 24 h ([1]; methanol-dichloromethane 1:0.5 (v/v), 24 h, 37° C.): 19.2 mg/mL (≈ 41.2 mM)
solubility at 24 h ([1]; methanol-dichloromethane 1:1, 24 h, 37° C.): 24.2 mg/mL (≈ 52.1 mM)
solubility at 30 min ([1]; methanol-dichloromethane 1:2, 30 min, 37° C.): 20.9 mg/mL (≈ 45 mM)
solubility at 24 h ([1]; methanol-dichloromethane 1:2, 24 h, 37° C.): 36.2 mg/mL (≈ 77.8 mM)
solubility at 30 min ([1]; methanol-dichloromethane 1:3, 30 min, 37° C.): 36.4 mg/mL (≈ 78.2 mM)
solubility at 24 h ([1]; methanol-dichloromethane 1:3, 24 h, 37° C.): 36.4 mg/mL (≈ 78.4 mM)
solubility at 30 min ([1]; methanol-dichloromethane 1:4, 30 min, 37° C.): 31.3 mg/mL (≈ 67.4 mM)
solubility at 24 h ([1]; methanol-dichloromethane 1:4, 24 h, 37° C.): 36.3 mg/mL (≈ 78.1 mM)
Related substances RRT 0.08 ([2]; API, no solvent): 0.008%
Related substances RRT 0.30 ([2]; API, no solvent): 0.029%
Related substances RRT 0.40 ([2]; API, no solvent): 0.006%
Related substances RRT 0.55 ([2]; API, no solvent): 0.028%
Related substances RRT 0.92 ([2]; API, no solvent): 0.054%
Related substances RRT 1.00 ([2]; API, no solvent): 99.864%
Related substances RRT 0.05 [2, 8]: 4.314%
Related substances RRT 0.08 [2, 8]: 0.011%
Related substances RRT 0.30 [2, 8]: 0.029%
Related substances RRT 0.40 [2, 8]: 0.008%
Related substances RRT 0.55 [2, 8]: 0.025%
Related substances RRT 0.92 [2, 8]: 0.047%
Related substances RRT 1.00 [2, 8]: 95.562%
Related substances RRT 0.05 [2, 9]: 3.946%
Related substances RRT 0.08 [2, 9]: 0.010%
Related substances RRT 0.30 [2, 9]: 0.033%
Related substances RRT 0.40 [2, 9]: 0.007%
Related substances RRT 0.55 [2, 9]: 0.020%
Related substances RRT 0.92 [2, 9]: 0.035%
Related substances RRT 1.00 [2, 9]: 95.893%
Related substances RRT 0.05 [2, 10]: 12.979%
Related substances RRT 0.08 [2, 10]: 2.491%
Related substances RRT 0.30 [2, 10]: 0.020%
Related substances RRT 0.35 [2, 10]: 0.282%
Related substances RRT 0.92 [2, 10]: 0.039%
Related substances RRT 1.00 [2, 10]: 84.196%
Related substances RRT 0.05 [2, 11]: 14.191%
Related substances RRT 1.00 [2, 11]: 85.157%
Related substances RRT 0.03 ([2]; isopropanol, standing 30 min): 0.161%
Related substances RRT 1.00 ([2]; isopropanol, standing 30 min): 99.839%
Related substances RRT 1.00 ([2]; isopropanol, standing 24 h): 99.365%
Related substances RRT 0.08 [2, 12]: 0.011%
Related substances RRT 0.30 [2, 12]: 0.030%
Related substances RRT 0.40 [2, 12]: 0.008%
Related substances RRT 0.55 [2, 12]: 0.031%
Related substances RRT 0.92 [2, 12]: 0.037%
Related substances RRT 1.00 [2, 12]: 99.870%
Related substances RRT 0.08 [2, 13]: 0.013%
Related substances RRT 0.30 [2, 13]: 0.035%
Related substances RRT 0.40 [2, 13]: 0.009%
Related substances RRT 0.55 [2, 13]: 0.028%
Related substances RRT 0.92 [2, 13]: 0.049%
Related substances RRT 1.00 [2, 13]: 99.853%
Related substances RRT 0.08 [2, 14]: 0.015%
Related substances RRT 0.30 [2, 14]: 0.029%
Related substances RRT 0.40 [2, 14]: 0.006%
Related substances RRT 0.55 [2, 14]: 0.026%
Related substances RRT 0.92 [2, 14]: 0.050%
Related substances RRT 1.00 [2, 14]: 99.861%
Related substances RRT 0.08 [2, 15]: 0.012%
Related substances RRT 0.30 [2, 15]: 0.035%
Related substances RRT 0.40 [2, 15]: 0.009%
Related substances RRT 0.55 [2, 15]: 0.025%
Related substances RRT 0.92 [2, 15]: 0.037%
Related substances RRT 1.00 [2, 15]: 99.872%
Related substances RRT 0.08 [2, 16]: 0.013%
Related substances RRT 0.30 [2, 16]: 0.028%
Related substances RRT 0.40 [2, 16]: 0.007%
Related substances RRT 0.55 [2, 16]: 0.024%
Related substances RRT 0.92 [2, 16]: 0.034%
Related substances RRT 1.00 [2, 16]: 99.884%
Related substances RRT 0.08 [2, 17]: 0.013%
Related substances RRT 0.30 [2, 17]: 0.028%
Related substances RRT 0.40 [2, 17]: 0.008%
Related substances RRT 0.55 [2, 17]: 0.032%
Related substances RRT 0.92 [2, 17]: 0.045%
Related substances RRT 1.00 [2, 17]: 99.862%
change in related substances ([2]; methanol-dichloromethane (1:3), 30 min and 24 h): no significant change in related substances
Solubility ([3]; 0.5 h): <0.09 µg/mL
Solubility ([3]; 2 h): <0.09 µg/mL
Solubility ([3]; 4 h): <0.09 µg/mL
solubility at 0.5 h ([3]; phosphate buffer, 37 °C, pH 6.8, aqueous buffer, thermodynamic from solid, pH 6.8 phosphate buffer solution, 0.5 h): < 0.09 µg/mL
solubility at 2 h ([3]; phosphate buffer, 37 °C, pH 6.8, aqueous buffer, thermodynamic from solid, pH 6.8 phosphate buffer solution, 2 h): < 0.09 µg/mL
solubility at 4 h ([3]; phosphate buffer, 37 °C, pH 6.8, aqueous buffer, thermodynamic from solid, pH 6.8 phosphate buffer solution, 4 h): < 0.09 µg/mL
Related substances: CTF-aniline ([4]; 0 day): Not detected
Related substances: Maximum single impurity ([4]; 0 day): 0.03%
Related substances: Total impurity ([4]; 0 day): 0.09%
Related substances: CTF-aniline ([4]; 10 days): Not detected
Related substances: Maximum single impurity ([4]; 10 days): 0.04%
Related substances: Total impurity ([4]; 10 days): 0.10%
Related substances: CTF-aniline ([4]; 30 days): Not detected
Related substances: Maximum single impurity ([4]; 30 days): 0.05%
Related substances: Total impurity ([4]; 30 days): 0.10%
administered dose excreted through feces [5]: 77%
prototype drug excreted through feces [5]: above 51%
blood concentration of patients with serious adverse reactions [6]: more than 10,000 ng/ml
incidence of diarrhea [6]: 76.5%
incidence of fatigue [6]: 55.32%
incidence of hand-foot syndrome [6]: 68.99%
Solubility ([7]; pH1): 0.0034 mg/mL (≈ 0.00731 mM)
Solubility ([7]; pH4.5): 0.00013 mg/mL (≈ 0.00028 mM)
